The values that follow come from patent publication US20240093198A1, “TGF-BETA THERAPEUTICS FOR AGE DISEASE” (GMP BIOTECHNOLOGY LIMITED, priority 2021, published 2024).

Series [1] in a line: in vitro. The settings on record: African green monkey.
Series [2] relates to COVID-19.
The subject of series [3] is SARS-COV-2 USA_WA1/2020. Briefly: microbe, parasite or virus in culture. The settings on record: Severe acute respiratory syndrome coronavirus 2, Vero 76, read-out: EC50: 50% effective antiviral concentration.
For series [4], the system named is SARS-COV-2 USA_WA1/2020. The settings on record: Vero 76 cells.
Series [5] relates to SARS-COV-2. Conditions: from Wang M et al., Cell Res. 2020; cited from earlier work.
Where [6] appears, read: by day 28, p<0.0001, not with SOC alone.

Molecules are shown by their SMILES. Values after ≈ are worked out from the molar mass of the structure shown. Where only a bound is given, the exact number is not on record here.

In series [1], `C[C@@H]1CC[C@H]2[C@@H](C)C(=O)O[C@@H]3O[C@@]4(C)CC[C@@H]1[C@]32OO4` [Artemisinin] registered a CC50 of 61 µg/mL (≈ 216 µM). Moreover, the Safety profile entry in series [2] (80 patients on Artemisinin) is “very favorable safety profile”. For the same compound, in series [2] (Day 4 and Day 5, p=0.0045 and p=0.0370), the WHO severity scale entry is on record as “significant improvement over SOC”. Also, the “Recovery of patients with mild-moderate COVID-19 across symptoms (fever, sore throat, dry cough, ache)” value in series [2] (added to the SOC) was “accelerated the recovery”. Also, the “Decline in body temperature in comparison to SOC arm” value in series [2] (by day 2) is “faster and higher”. Further, the “Improvement in respiratory rate in comparison to SOC arm” value in series [2] (by day 5) is “faster and higher”. Further, the “Improvement in mean SpO2 level in comparison to SOC arm” value in series [2] (by day 28 (end of study), p=0.029) is listed as “significantly higher”. In addition, in series [2] (setting [6]), the O2 sat result is “fully recovered” and the respiratory rate result is “fully recovered”. For the same compound, in series [2] (human, in vivo), the “Artemisinin-related adverse events (the only ones)” value is “transient mild rash and mild hypertension”; the “Changes in biochemistry or hematology parameters” value is recorded as “no clinically significant changes”; the Efficacy in words result is “effective in treating subjects with mild and moderate COVID-19”; the Safety and tolerability result is “safe and well-tolerated”. In addition, the “Reduction of WHO score on the first few doses” value in series [2] (p=0.0043, n=56 PulmoHeal+SOC vs n=25 SOC) was “Almost all of WHO-4 patients achieved a reduction WHO-3”. The “Long term lung functions (FIG. 4)” value in series [2] (patients with confirmed SARS-CoV-2 infection) is given as “restored long term lung functions”. Besides, in series [3], the EC50 turned out to be 0.45 µg/mL (≈ 1.59 µM). For the same compound, the “SI = CC50/EC50 (Safety Index)” value in series [4] amounted to 140.

`CCC(CC)COC(=O)[C@H](C)N[P@](=O)(OC[C@H]1O[C@@](C#N)(c2ccc3c(N)ncnn23)[C@H](O)[C@@H]1O)Oc1ccccc1` [Remdesivir]: in series [5], the CC50 was > 100 µM.
